In brackets after ≈: the same amount, converted by molar mass.
system: P388; test: Cytotoxicity against mouse P388 cells; format: functional; conditions: read-out: ED50 (the source's name)

How did the EC50 turn out when `CC(=O)OCC1=CC(C)=C[C@@]2(C)C[C@]3(C[C@H]12)C(=O)O[C@H]1O[C@H]13` [SPIROTUBIPOLIDE] was run?
The EC50 was 3.24 µg/mL (≈ 10.6 µM).

How did the EC50 turn out when `CC1=CC=C[C@@]2(C)C[C@@H]3OC(=O)C(C)=C3C[C@@H]12` [TUBIPOLIDE B] was run?
The EC50 was 3.69 µg/mL (≈ 16 µM).

How did the EC50 turn out when `CC(=O)OCC1=CC=C[C@@]2(C)C=C3OC(=O)C(C)=C3C[C@@H]12` [TUBIPOLIDE G] was run?
The EC50 was 4.01 µg/mL (≈ 14 µM).

— ChEMBL document CHEMBL1156373, “Sesquiterpenes from the Formosan stolonifer Tubipora musica” (2001)
